From publication PMC5642477, “Phosphodiesterase 10A is overexpressed in lung tumor cells and inhibitors selectively suppress growth by blocking β-catenin and MAPK signaling” (Oncotarget, 2017)
Where two headings read alike, the source gives them in different places.

Legend:
[1] = tested on: human lung tumor cells; test: Growth assay (Cell Titer Glo), lung tumor cell panel; format: cell-based
Experimental: (§1) Cells were plated in half area 96-well microtiter plates (Corning) at a density of 3, 000 cells per well. For drug treatment, cells were treated with compound or DMSO as vehicle (final concentration at 0.2%). For siRNA assays, cells were transfected with siRNAs under the same condition as described above. The effect of treatment on cell growth was measured using the Cell Titer Glo (CTG) assay (Promega) as specified by the measurement of viable cells based on ATP content after 72 hours standard culture. All growth assay involving NSCLCs and NHAECs were performed in the presence of 5% serum.
(§2) Drug effects on cell growth and IC50 values were determined as described previously. All experiments were repeated a minimum of three times to determine the reproducibility of the results. All error bars represent standard error of the mean (SEM). Statistical analysis was performed using Student’s t test or other as indicated. A P value of <0.05 was considered statistically significant.

[2] = tested on: MAPK signaling in H1299 cells; test: Western blotting, RAF/MAPK signaling; format: cell-based, human
Experimental: (§3) Whole cell extraction was performed according to a previously described method using cell lysing buffer (Cell Signaling) supplemented with 10 mmol/L NaF for protein phosphorylation studies. Cell lysates were separated by 4-12% gradient, 7% or 10% pre-casting PAGE (Novex/Invitrogen) followed by electrophoretic transfer to a nitrocellulose membrane. Western blotting procedures were performed using Chemiluminescence Reagent (Pierce) and visualized using Chemi Doc Imaging System (BioRad).

[3] = tested on: HOP62 PDE10 knockdown cells (shPDE10); test: Growth assay (Cell Titer Glo); format: cell-based, human; conditions: shPDE10, PQ10 2 µmol/L
Experimental: (§4) The transient knockdown of PDE10 in NSCLC cells by PDE10-specific siRNA and scramble siRNA control was performed using RNAiMAX reagent (Invitrogen) as previously described. Effects of siRNA on NSCLC cell growth and PDE10 expression levels were measured after 72 hours of treatment. For a stable knockdown of PDE10, GIPZ lentiviral short hairpin RNA (shRNA) vectors targeting human PDE10, nonsilencing GPIZ lentiviral control vector, and transduction kit were purchased from Open Biosystems. Lentiviral particles of shRNA were produced in HEK293T cells (ATCC) according to the manufacturer’s instructions. HOP62 NSCLC cells were transfected by the lentivirus particles followed by puromycin (5 μg/mL) selection. Stable expression cell lines with shRNA of PDE10 (shPDE10) or lentiviral vector control (shCTL) were obtained by limited dilution for single cell clone and confirmed by Western blotting.
Cells were plated in half area 96-well microtiter plates (Corning) at a density of 3, 000 cells per well. For drug treatment, cells were treated with compound or DMSO as vehicle (final concentration at 0.2%). For siRNA assays, cells were transfected with siRNAs under the same condition as described above. The effect of treatment on cell growth was measured using the Cell Titer Glo (CTG) assay (Promega) as specified by the measurement of viable cells based on ATP content after 72 hours standard culture. […]

[4] = tested on: HOP62 cells (shCTL vector control); test: Colony formation assay; format: cell-based, human
Experimental: as §4
(§5) For colony formation assays, 200 viable cells were plated in 6-well tissue culture plates and were cultured in RPMI medium supplemented with 5% serum. DMSO (0.2%) as the vehicle and different concentrations of PQ10 were added to the cell culture medium for 14 days of treatment. Colonies were counted after staining with crystal violet as previously described.

[5] = tested on: HOP62 PDE10 knockdown cells (shPDE10); test: Colony formation assay; format: cell-based, human
Experimental: as §4, §5

[6] = tested on: β-catenin in H1299 cells; test: Western blotting, β-catenin phosphorylation; format: cell-based, human; conditions: H1299 cells
Experimental: as §3

[7] = tested on: normal human airway epithelial cells (NHAECs); test: Growth assay (Cell Titer Glo); format: cell-based
Experimental: as §1, §2

[8] = tested on: H460 cells; test: Growth assay (Cell Titer Glo); format: cell-based; conditions: Homo sapiens, NCI-H460; H460, 72 hours, 5% serum; read-out: Growth inhibition IC50
Experimental: as §1, §2

[9] = tested on: A549 cells; test: Growth assay (Cell Titer Glo); format: cell-based; conditions: Homo sapiens; A549, 72 hours, 5% serum; read-out: Growth inhibition IC50
Experimental: as §1, §2

[10] = tested on: H1975 cells; test: Growth assay (Cell Titer Glo); format: cell-based; conditions: Homo sapiens, NCI-H1975; H1975, 72 hours, 5% serum; read-out: Growth inhibition IC50
Experimental: as §1, §2

[11] = tested on: HOP62 cells; test: Growth assay (Cell Titer Glo); format: cell-based, human
Experimental: as §1, §2

[12] = tested on: H1299 cells; test: Growth assay (Cell Titer Glo); format: cell-based, human; conditions: Homo sapiens, NCI-H1299; H1299, 72 hours, 5% serum; read-out: Growth inhibition IC50
Experimental: as §1, §2

[13] = tested on: cleaved PARP and caspase 3 in H1299 cells; test: Western blotting, cleaved PARP and caspase 3 (apoptosis); format: cell-based, human; conditions: H1299 cells
Experimental: as §3

[14] = target: PDE5A (Homo sapiens, UniProt O76074); test: IMAP fluorescence polarization PDE assay, recombinant PDE isozymes; format: biochemical; conditions: substrate cGMP; read-out: IC50 of PQ10 cGMP
Experimental: (§6) The enzymatic activity of recombinant PDE or PDE activities in cell lysates were measured using the IMAP fluorescence polarization (FP) PDE assay (Molecular Devices) as previously described. PDE10 inhibitors and DMSO as the vehicle were added to assay buffer 10 minutes before the incubation with the enzyme reaction. Fluorescence polarization values were measured using Synergy H4 Hybrid Reader (BioTek).

[15] = target: PDE4B (Homo sapiens, UniProt Q07343); test: as above; format: biochemical; conditions: substrate cAMP; read-out: IC50 of PQ10 cAMP
Sequence of PDE4B (Q07343 whole entry): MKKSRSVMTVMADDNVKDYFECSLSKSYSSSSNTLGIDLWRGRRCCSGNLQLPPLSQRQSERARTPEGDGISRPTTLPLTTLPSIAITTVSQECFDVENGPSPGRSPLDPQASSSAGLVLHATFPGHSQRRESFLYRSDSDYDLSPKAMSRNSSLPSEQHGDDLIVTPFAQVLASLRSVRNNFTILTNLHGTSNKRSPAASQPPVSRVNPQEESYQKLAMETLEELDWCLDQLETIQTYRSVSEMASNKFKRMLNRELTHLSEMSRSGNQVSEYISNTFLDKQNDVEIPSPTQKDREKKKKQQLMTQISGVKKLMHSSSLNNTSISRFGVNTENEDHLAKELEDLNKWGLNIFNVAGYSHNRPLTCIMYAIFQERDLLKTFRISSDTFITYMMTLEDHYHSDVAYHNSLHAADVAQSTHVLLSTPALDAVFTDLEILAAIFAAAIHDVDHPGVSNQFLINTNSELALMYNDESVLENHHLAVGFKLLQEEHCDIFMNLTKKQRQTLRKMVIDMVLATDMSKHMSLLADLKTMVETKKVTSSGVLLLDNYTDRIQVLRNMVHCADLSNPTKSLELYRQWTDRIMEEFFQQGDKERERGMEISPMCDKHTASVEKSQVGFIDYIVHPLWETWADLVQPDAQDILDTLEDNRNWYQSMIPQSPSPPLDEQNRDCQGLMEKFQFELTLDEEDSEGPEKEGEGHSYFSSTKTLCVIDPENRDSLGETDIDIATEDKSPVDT
Experimental: as §6

[16] = target: PDE2A (Homo sapiens, UniProt O00408); test: as above; format: biochemical
Sequence of PDE2A (O00408 whole entry): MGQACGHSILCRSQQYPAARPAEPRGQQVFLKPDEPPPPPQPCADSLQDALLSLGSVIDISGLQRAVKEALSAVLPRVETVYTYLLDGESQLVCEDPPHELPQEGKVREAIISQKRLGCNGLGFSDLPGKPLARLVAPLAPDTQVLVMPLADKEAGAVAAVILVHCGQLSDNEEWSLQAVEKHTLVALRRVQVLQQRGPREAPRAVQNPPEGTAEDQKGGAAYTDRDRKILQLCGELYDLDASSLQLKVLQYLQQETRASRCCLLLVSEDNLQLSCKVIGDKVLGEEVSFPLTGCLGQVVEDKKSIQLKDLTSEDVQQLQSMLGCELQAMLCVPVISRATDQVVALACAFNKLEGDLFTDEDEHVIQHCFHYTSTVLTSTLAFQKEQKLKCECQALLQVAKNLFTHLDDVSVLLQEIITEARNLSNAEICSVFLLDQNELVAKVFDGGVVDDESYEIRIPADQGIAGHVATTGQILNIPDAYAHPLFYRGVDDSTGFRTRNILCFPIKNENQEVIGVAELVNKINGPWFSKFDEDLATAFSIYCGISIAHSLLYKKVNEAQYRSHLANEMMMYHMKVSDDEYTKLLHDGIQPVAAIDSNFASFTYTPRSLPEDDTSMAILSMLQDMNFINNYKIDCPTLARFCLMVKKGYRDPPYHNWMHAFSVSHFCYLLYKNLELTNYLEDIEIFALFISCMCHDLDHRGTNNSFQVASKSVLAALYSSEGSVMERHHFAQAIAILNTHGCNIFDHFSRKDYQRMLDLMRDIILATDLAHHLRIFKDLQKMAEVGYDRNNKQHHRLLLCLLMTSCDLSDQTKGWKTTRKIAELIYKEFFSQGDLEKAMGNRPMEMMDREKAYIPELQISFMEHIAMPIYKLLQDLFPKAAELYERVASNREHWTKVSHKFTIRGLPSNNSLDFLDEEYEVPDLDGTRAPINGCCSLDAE
Experimental: as §6

[17] = target: PDE11A (Homo sapiens, UniProt Q9HCR9); test: as above; format: biochemical
Sequence of PDE11A (Q9HCR9 whole entry): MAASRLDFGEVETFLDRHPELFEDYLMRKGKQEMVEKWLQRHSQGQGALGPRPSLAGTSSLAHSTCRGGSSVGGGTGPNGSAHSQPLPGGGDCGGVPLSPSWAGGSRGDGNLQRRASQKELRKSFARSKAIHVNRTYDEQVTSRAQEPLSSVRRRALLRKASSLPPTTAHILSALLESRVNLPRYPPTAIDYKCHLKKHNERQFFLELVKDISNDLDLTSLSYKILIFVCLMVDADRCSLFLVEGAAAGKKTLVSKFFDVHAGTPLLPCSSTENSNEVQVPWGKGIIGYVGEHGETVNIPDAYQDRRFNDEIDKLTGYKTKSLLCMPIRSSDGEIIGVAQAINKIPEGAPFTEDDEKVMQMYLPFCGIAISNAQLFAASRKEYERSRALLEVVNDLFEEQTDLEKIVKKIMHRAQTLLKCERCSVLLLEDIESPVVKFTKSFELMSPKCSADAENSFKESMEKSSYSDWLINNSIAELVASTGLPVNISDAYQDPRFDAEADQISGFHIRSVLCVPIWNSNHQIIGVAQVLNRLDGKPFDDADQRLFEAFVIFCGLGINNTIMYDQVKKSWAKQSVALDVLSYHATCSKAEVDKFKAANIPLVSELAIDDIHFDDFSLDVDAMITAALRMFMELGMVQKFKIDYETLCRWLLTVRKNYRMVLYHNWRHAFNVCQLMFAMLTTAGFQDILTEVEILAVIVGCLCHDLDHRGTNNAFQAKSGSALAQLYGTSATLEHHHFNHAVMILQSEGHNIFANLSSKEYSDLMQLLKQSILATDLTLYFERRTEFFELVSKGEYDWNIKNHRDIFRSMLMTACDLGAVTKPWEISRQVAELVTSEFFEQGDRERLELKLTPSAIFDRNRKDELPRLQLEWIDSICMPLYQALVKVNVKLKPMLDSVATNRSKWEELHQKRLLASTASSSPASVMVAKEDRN
Experimental: as §6

[18] = target: PDE10A (Homo sapiens, UniProt Q9Y233); test: as above; format: biochemical
Sequence of PDE10A (Q9Y233 718-1035 limits assumed): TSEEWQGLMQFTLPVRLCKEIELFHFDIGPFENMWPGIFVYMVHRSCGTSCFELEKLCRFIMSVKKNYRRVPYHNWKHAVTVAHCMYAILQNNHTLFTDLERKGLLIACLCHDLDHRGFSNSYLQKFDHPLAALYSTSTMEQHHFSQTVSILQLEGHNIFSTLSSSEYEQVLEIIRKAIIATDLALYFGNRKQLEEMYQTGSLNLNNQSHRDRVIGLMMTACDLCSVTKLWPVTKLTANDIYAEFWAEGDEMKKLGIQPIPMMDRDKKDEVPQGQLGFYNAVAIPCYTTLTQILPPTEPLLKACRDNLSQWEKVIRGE
Experimental: as §6

[19] = target: PDE1A (Homo sapiens, UniProt P54750); test: as above; format: biochemical
Sequence of PDE1A (P54750 whole entry): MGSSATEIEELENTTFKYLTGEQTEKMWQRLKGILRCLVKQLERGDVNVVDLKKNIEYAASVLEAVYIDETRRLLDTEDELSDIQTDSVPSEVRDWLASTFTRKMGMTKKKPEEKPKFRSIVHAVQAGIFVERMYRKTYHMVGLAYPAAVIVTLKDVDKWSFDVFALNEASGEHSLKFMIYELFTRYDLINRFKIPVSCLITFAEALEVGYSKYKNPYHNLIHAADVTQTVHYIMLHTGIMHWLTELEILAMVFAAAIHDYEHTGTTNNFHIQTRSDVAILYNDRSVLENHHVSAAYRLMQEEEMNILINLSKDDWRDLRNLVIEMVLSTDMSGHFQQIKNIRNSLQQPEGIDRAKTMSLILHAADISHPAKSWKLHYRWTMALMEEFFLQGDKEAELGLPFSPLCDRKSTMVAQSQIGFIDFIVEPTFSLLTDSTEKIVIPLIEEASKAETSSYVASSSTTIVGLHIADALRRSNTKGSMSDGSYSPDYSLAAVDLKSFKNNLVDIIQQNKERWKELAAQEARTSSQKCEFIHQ
Experimental: as §6

[20] = target: PDE3A (Homo sapiens, UniProt Q14432); test: as above; format: biochemical
Sequence of PDE3A (Q14432 whole entry): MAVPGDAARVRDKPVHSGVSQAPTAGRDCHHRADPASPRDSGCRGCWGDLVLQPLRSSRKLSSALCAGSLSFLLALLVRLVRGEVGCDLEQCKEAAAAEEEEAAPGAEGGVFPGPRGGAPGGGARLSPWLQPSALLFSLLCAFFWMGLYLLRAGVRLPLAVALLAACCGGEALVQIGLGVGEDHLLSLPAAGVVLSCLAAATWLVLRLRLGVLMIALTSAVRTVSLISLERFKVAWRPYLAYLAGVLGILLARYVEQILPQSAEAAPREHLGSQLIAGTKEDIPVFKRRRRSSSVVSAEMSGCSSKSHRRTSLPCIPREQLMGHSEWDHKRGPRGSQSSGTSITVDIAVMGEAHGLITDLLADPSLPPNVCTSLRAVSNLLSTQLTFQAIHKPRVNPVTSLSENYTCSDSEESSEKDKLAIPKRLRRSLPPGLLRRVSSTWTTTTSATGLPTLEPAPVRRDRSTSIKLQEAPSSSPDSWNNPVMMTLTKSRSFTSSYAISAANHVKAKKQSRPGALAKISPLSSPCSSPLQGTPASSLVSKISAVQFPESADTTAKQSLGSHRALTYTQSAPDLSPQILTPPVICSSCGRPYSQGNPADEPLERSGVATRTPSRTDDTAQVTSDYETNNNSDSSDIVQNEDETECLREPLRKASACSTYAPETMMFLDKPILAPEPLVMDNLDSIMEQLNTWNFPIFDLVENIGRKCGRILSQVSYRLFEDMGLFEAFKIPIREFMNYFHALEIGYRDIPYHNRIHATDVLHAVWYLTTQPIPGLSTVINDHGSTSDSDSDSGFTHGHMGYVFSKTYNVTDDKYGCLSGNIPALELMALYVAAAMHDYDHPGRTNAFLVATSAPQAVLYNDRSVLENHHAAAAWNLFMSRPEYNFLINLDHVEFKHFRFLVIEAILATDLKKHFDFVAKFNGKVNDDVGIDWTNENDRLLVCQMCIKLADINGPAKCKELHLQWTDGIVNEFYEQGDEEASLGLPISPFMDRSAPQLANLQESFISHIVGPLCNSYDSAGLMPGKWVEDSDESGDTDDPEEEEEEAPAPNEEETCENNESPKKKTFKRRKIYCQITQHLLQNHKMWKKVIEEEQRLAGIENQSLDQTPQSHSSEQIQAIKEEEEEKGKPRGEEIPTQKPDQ
Experimental: as §6

[21] = substrate cAMP, read-out: IC50 of PQ10 cAMP
[22] = substrate cGMP, read-out: IC50 of PQ10 cGMP

Question: Which “maximum reduction of viable cell number” value ([1]; 3 days of treatment) does the source give for `COc1cc2ncnc(N3CC[C@@H](Oc4cnc5ccccc5n4)C3)c2cc1OC` [PQ10] here?
Answer: greater than 75%

Question: And the IC50 ([1]; Homo sapiens, 72 h, read-out: Growth inhibition IC50 values, range over human lung tumor cells)?
Answer: 0.32 to 1.69 µM

Question: What about the “MAPK signaling, ERK1/2 (p42/44) phosphorylation at T202/Y204” value [2] of the same compound?
Answer: concentration- and time-dependent inhibition

Question: What about the “phosphorylation of c-RAF at serine 338 and serine 259” value [2] of the same compound?
Answer: did not affect

Question: And the “sensitivity of PDE10 knockdown HOP62 cells in growth assay” value [3]?
Answer: appreciably less sensitive

Question: And the “reduction of colony formation” value ([4]; 0.1 µmol/L, HOP62 vector control cells)?
Answer: 54.4%

Question: What about the IC50 ([4]; Homo sapiens, HOP-62, 336 h, HOP62 shCTL, 14 days of treatment) of the same compound?
Answer: 0.098 µM

Question: And the “reduction of colony formation” value ([5]; 0.1 µmol/L, PDE10 knockdown HOP62 cells)?
Answer: 12.3%

Question: What about the IC50 ([5]; Homo sapiens, HOP-62, 336 h, HOP62 shPDE10, 14 days of treatment) of the same compound?
Answer: 0.172 µM

Question: And the “phosphorylation level of β-catenin at pSer675” value [6]?
Answer: no change

Question: And the “phosphorylation of β-catenin at pSer552” value ([6]; concentration-dependent, 0.5-1 hour)?
Answer: increased the phosphorylation

Question: And the IC50 ([7]; Homo sapiens, Epithelial cell, NHAEC, 72 hours, 5% serum, read-out: Growth inhibition IC50)?
Answer: 17.3 µM

Question: And the “fold less sensitive to PQ10 treatment (NHAECs vs lung tumor cells)” value ([7]; growth assays under identical conditions)?
Answer: ≤ 50 fold

Question: What about the IC50 [8] of the same compound?
Answer: 0.32 µM

Question: And the IC50 [9]?
Answer: 0.54 µM

Question: And the IC50 [10]?
Answer: 1.27 µM

Question: And the IC50 ([11]; Homo sapiens, HOP-62, HOP62, 72 hours, 5% serum, read-out: Growth inhibition IC50)?
Answer: 1.01 µM

Question: And the “growth of vector control HOP62 cells” value ([11]; shCTL, PQ10 2 µmol/L)?
Answer: effectively inhibited

Question: What about the IC50 [12] of the same compound?
Answer: 1.69 µM

Question: What about the “lowest concentration increasing cleaved PARP and caspase 3” value ([13]; 24 hours of treatment) of the same compound?
Answer: 0.1 µmol/L

Question: What about the “concentration of maximum effect on cleaved PARP and caspase 3” value ([13]; 48 hours of treatment) of the same compound?
Answer: 5 µmol/L

Question: And the IC50 [14]?
Answer: 1.8 µM

Question: And the IC50 [15]?
Answer: 17.8 µM

Question: And the IC50 [16, 21]?
Answer: 7 µM

Question: And the IC50 [16, 22]?
Answer: 3.7 µM

Question: And the IC50 [17, 21]?
Answer: 30.1 µM

Question: And the IC50 [17, 22]?
Answer: 13.2 µM

Question: What about the IC50 [18, 21] of the same compound?
Answer: 0.013 µM

Question: And the IC50 [18, 22]?
Answer: 0.005 µM

Question: And the IC50 [19, 21]?
Answer: 29.2 µM

Question: And the IC50 [19, 22]?
Answer: 8.8 µM

Question: What about the IC50 [20, 21] of the same compound?
Answer: 0.47 µM

Question: What about the IC50 [20, 22] of the same compound?
Answer: 0.32 µM
